Laboratory results taken from PubChem BioAssay AID2060888 (Molecular Pharmacology Branch, DTP, NCI, 2025).

Tested on: 695427-040-R-J1-PDC complex spheroid viability
Test: Anticancer human tumor 695427-040-R-J1-PDC patient-derived colon adenocarcinoma cell line growth inhibition [RAS]
Settings: for viability, T/C: stronger effect = lower value
Excerpt: RAS pathway inhibitors in Combinations in Complex Spheroids
A high-throughput screen of multi-cell type tumor spheroids was designed to identify active combinations of RAS pathway inhibitors and targeted small molecules. Complex spheroids include a stromal component modeled by human endothelial cells (HUVEC) and fibroblasts modeled by human mesenchymal stem cells (MSCs). The concentration ranges selected for each drug and investigational agent were based upon clinically achievable concentrations if the clinical Cmax of the agent was known.
Compounds. The drugs and investigational agents: abemaciclib (NSC768073), cobimetinib (NSC768068), divarasib (GDC6063, NSC841802), docetaxel (NSC628503), GDC-1971 (RLY-1971, NSC841576), gemcitabine (NSC613327), inavolisib (NSC800729), ipatasertib (NSC767898), KB-0742 (NSC834161), MRTX-1133 (NSC836407), osimertinib (NSC779217), RMC-4630 (NSC839698), RMC-6236 (NSC851965), RMC-6291 (NSC852671), Ro-3306 (NSC812927), sapanisertib (NSC764658), SN-38 (NSC673596), staurosporine (NSC755774), SY5609 (NSC837396), and tovorafenib (DAY101, NSC766906), were obtained from the National Cancer Institute (NCI) Developmental Therapeutics Program Chemical Repository. The FDA-approved anticancer drug set is available from the NCI Developmental Therapeutics Program. […] The stock solutions were prepared in dimethyl sulfoxide (DMSO, Sigma-Aldrich, St. Louis, MO, cat. D2650) at 800-fold the tested concentration and stored at -70 degrees C prior to their use. All drugs and investigational agents were tested over a range starting from a high concentration at or near the clinical Cmax and decreasing in half-log increments. If the clinical Cmax for an agent had not been determined, the highest concentration tested was 10 microM.
Cell Culture. All cells were maintained in an incubator at 37 degrees C and 5% CO2 with 95% humidity. The PDC lines were cultured according to standard operating procedures established by the NCI PDMR. All PDCs were thawed and cultured in Matrigel-coated flasks prepared with a working solution of 1X Ham's F-12 nutrient mix, without supplementation (Invitrogen, Waltham, MA, cat. 11765054), 100 U/mL penicillin-streptomycin (Invitrogen, cat. 15140122), and 2.5% Matrigel (Corning Inc., Corning, NY, cat. 354248) for the first three passages. The 362531-283-R-J2-PDC and 782815-120-R-J1-PDC lines were cultured in 6C/Colon 1B media, which includes advanced DMEM/F-12 (Thermo Fisher Scientific, cat. 12634028), 10 mM HEPES (Thermo Fisher Scientific, cat. 15630080), 1X GlutaMAX supplement (Thermo Fisher Scientific, cat. 35050061), 0.1 mg/mL primocin (InvivoGen, San Diego, CA, cat. ant-pm-2), 10% defined fetal bovine serum, heat inactivated (HyClone Laboratories Inc., Logan, UT, cat. SH30070.03HI), 50% L-WRN conditioned media (ATCC, cat. CRL-3276), 1.25 mM N-Acetyl-L-cysteine (Sigma-Aldrich, cat. A9165), 10 mM nicotinamide (Sigma-Aldrich, cat. N0636), 1X B-27 supplement (Thermo Fisher Scientific, cat. 17504044), 1X N-2 supplement (Thermo Fisher Scientific, cat. 17502048), 50 ng/mL human EGF (Thermo Fisher Scientific, cat. PHG0311), and 10 microM Y-27632 dihydrochloride (Tocris Bioscience, cat. 1254). The K12877-001-R-J1-PDC line was cultured in 6I media, which includes all 6C/Colon 1B media plus 10 ng/mL human FGF-10 (PeproTech, cat. 100-26), 1 ng/mL human FGF-2 (PeproTech, cat. 100-18B), 1 µM prostaglandin E2 (Tocris Bioscience, cat. 2296), […] hydrocortisone (Sigma-Aldrich, cat. H4001), and […] bovine insulin (Sigma-Aldrich, cat. I6634). The K86415-001-R-J1-PDC line was cultured in 6D media, which includes all 6C/Colon 1B media components minus the L-WRN conditioned media. The 485176-168-R4-J1-PDC was cultured in PANC media, which includes all 6C/Colon 1B media plus 100 ng/mL human FGF-10 (PeproTech, cat. 100-26), 500 nM SB-431542 (Selleckchem, cat. S1067), and 10 nM gastrin (Tocris Bioscience, cat. 3006). […]

[1] = curve of first compound, second compound 0.000949 µM
[2] = curve of first compound, second compound 0.003 µM
[3] = curve of first compound, second compound 0.00949 µM
[4] = curve of first compound, second compound 0.03 µM
[5] = curve of first compound, second compound 0.0949 µM
[6] = curve of first compound, second compound 0.3 µM
[7] = second compound 0.000949 µM, first compound 0.0316 µM
[8] = second compound 0.000949 µM, first compound 0.1 µM
[9] = second compound 0.000949 µM, first compound 0.316 µM
[10] = second compound 0.000949 µM, first compound 1 µM
[11] = second compound 0.003 µM, first compound 0.0316 µM
[12] = second compound 0.003 µM, first compound 0.1 µM
[13] = second compound 0.003 µM, first compound 0.316 µM
[14] = second compound 0.003 µM, first compound 1 µM
[15] = second compound 0.00949 µM, first compound 0.0316 µM
[16] = second compound 0.00949 µM, first compound 0.1 µM
[17] = second compound 0.00949 µM, first compound 0.316 µM
[18] = second compound 0.00949 µM, first compound 1 µM
[19] = second compound 0.03 µM, first compound 0.0316 µM
[20] = second compound 0.03 µM, first compound 0.1 µM
[21] = second compound 0.03 µM, first compound 0.316 µM
[22] = second compound 0.03 µM, first compound 1 µM
[23] = second compound 0.0949 µM, first compound 0.0316 µM
[24] = second compound 0.0949 µM, first compound 0.1 µM
[25] = second compound 0.0949 µM, first compound 0.316 µM
[26] = second compound 0.0949 µM, first compound 1 µM
[27] = second compound 0.3 µM, first compound 0.0316 µM
[28] = second compound 0.3 µM, first compound 0.1 µM
[29] = second compound 0.3 µM, first compound 0.316 µM
[30] = second compound 0.3 µM, first compound 1 µM
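Note: viability read after seven days of drug exposure.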
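Throughout, for viability, T/C: 100% = DMSO vehicle control viability.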

O=C(c1ccc(F)c(F)c1Nc1ccc(I)cc1F)N1CC(O)([C@@H]2CCCCN2)C1 + CCn1c(-c2cc(N3CCN(C)CC3)cnc2C(C)OC)c2c3cc(ccc31)-c1csc(n1)CC(NC(=O)C1CC1C)C(=O)N1CCCC(N1)C(=O)OCC(C)(C)C2
IC50 [1]: 73.6 nM | IC50 [2]: 43.1 nM | IC50 [3]: 26.5 nM | IC50 [4]: 4.98 nM | IC50 [5]: < 3.16 nM | IC50 [6]: < 3.16 nM | viability, T/C (second compound 0.000949 µM, first compound 0.00316 µM): 79.7% | viability, T/C (second compound 0.000949 µM, first compound 0.01 µM): 75.5% | viability, T/C [7]: 65.4% | viability, T/C [8]: 45.2% | viability, T/C [9]: 18.3% | viability, T/C [10]: 6.04% | viability, T/C (second compound 0.003 µM, first compound 0.00316 µM): 91.8% | viability, T/C (second compound 0.003 µM, first compound 0.01 µM): 74.2% | viability, T/C [11]: 53.8% | viability, T/C [12]: 40% | viability, T/C [13]: 14.5% | viability, T/C [14]: 7.31% | viability, T/C (second compound 0.00949 µM, first compound 0.00316 µM): 73.1% | viability, T/C (second compound 0.00949 µM, first compound 0.01 µM): 63.4% | viability, T/C [15]: 45.9% | viability, T/C [16]: 32.7% | viability, T/C [17]: 11.4% | viability, T/C [18]: 7.1% | viability, T/C (second compound 0.03 µM, first compound 0.00316 µM): 57.8% | viability, T/C (second compound 0.03 µM, first compound 0.01 µM): 37.1% | viability, T/C [19]: 28.5% | viability, T/C [20]: 18.5% | viability, T/C [21]: 8.58% | viability, T/C [22]: 5.7% | viability, T/C (second compound 0.0949 µM, first compound 0.00316 µM): 28.6% | viability, T/C (second compound 0.0949 µM, first compound 0.01 µM): 27.8% | viability, T/C [23]: 15.5% | viability, T/C [24]: 7.38% | viability, T/C [25]: 6.14% | viability, T/C [26]: 4.07% | viability, T/C (second compound 0.3 µM, first compound 0.00316 µM): 23.2% | viability, T/C (second compound 0.3 µM, first compound 0.01 µM): 17.1% | viability, T/C [27]: 11.6% | viability, T/C [28]: 6.62% | viability, T/C [29]: 6.7% | viability, T/C [30]: 5.28%

CCn1c(-c2cccnc2C(C)OC)c2c3cc(ccc31)N1CCOC(CC(NC(=O)C(C(C)C)N(C)C(=O)C3(F)CCN(C(=O)C#CC(C)(C)N(C)C)CC3)C(=O)N3CCCC(N3)C(=O)OCC(C)(C)C2)C1 (stereo not drawn)
viability, T/C (compound 0.000949 µM): 94% [middle of 8 runs] | viability, T/C (compound 0.03 µM): 95.8% [middle of 8 runs] | viability, T/C (compound 0.0949 µM): 102% [middle of 8 runs] | IC50 (compound alone, run of 05/20/2024): > 300 nM

CCC(CC)c1cc(NC2CCC(N)C2)n2nccc2n1 (stereo not drawn) + CCn1c(-c2cc(N3CCN(C)CC3)cnc2C(C)OC)c2c3cc(ccc31)-c1csc(n1)CC(NC(=O)C1CC1C)C(=O)N1CCCC(N1)C(=O)OCC(C)(C)C2
IC50 [1]: 1750 nM | IC50 [2]: 1400 nM | IC50 [3]: 732 nM | IC50 [4]: 1210 nM | IC50 [5]: < 31.6 nM | IC50 [6]: < 31.6 nM | viability, T/C [7]: 104% | viability, T/C [8]: 84.6% | viability, T/C [9]: 83.7% | viability, T/C [10]: 84.6% | viability, T/C (second compound 0.000949 µM, first compound 3.16 µM): 13.7% | viability, T/C (second compound 0.000949 µM, first compound 10 µM): 12.3% | viability, T/C [11]: 92.8% | viability, T/C [12]: 99.8% | viability, T/C [13]: 85.1% | viability, T/C [14]: 66.4% | viability, T/C (second compound 0.003 µM, first compound 3.16 µM): 9.9% | viability, T/C (second compound 0.003 µM, first compound 10 µM): 10.9% | viability, T/C [15]: 90.3% | viability, T/C [16]: 72.1% | viability, T/C [17]: 69.9% | viability, T/C [18]: 45.8% | viability, T/C (second compound 0.00949 µM, first compound 3.16 µM): 10.7% | viability, T/C (second compound 0.00949 µM, first compound 10 µM): 12.9% | viability, T/C [19]: 51% | viability, T/C [20]: 56.1% | viability, T/C [21]: 64.8% | viability, T/C [22]: 58.7% | viability, T/C (second compound 0.03 µM, first compound 3.16 µM): 7.23% | viability, T/C (second compound 0.03 µM, first compound 10 µM): 15.1% | viability, T/C [23]: 44.6% | viability, T/C [24]: 47.3% | viability, T/C [25]: 43.9% | viability, T/C [26]: 41.6% | viability, T/C (second compound 0.0949 µM, first compound 3.16 µM): 11% | viability, T/C (second compound 0.0949 µM, first compound 10 µM): 15.3% | viability, T/C [27]: 29.7% | viability, T/C [28]: 39.4% | viability, T/C [29]: 45.8% | viability, T/C [30]: 27.8% | viability, T/C (second compound 0.3 µM, first compound 3.16 µM): 6.23% | viability, T/C (second compound 0.3 µM, first compound 10 µM): 15.5%
